Laboratory results reported in patent publication US6653081B2, “Methods for monitoring antiretroviral therapy and guiding therapeutic decision in the treatment of HIV/AIDS” (ViroLogic, Inc., priority 2000, dated 2003).

Tests used:
RTV-012123 = experiment: Phenotypic susceptibility assay, RTV-012123; type: cell-based, HIV; conditions: patient 012123; for decrease in susceptibility: 245 with multiple other mutations
Excerpt: (§1) The resistance test vectors containing a functional luciferase gene cassette were constructed and host cells were transfected with the resistance test vector DNA. The resistant test vectors contained patient-derived reverse transcriptase and protease sequences that were either susceptible or resistant to the antiretroviral agents, such as nucleoside reverse transcriptase inhibitors, (NRTIs) non-nucleoside reverse transcriptase inhibitors […] protease inhibitors. The resistance test vector viral particles produced by transfecting the resistance test vector DNA into host cells, either in the presence or absence of PRIs, were used to infect target host cells grown either in the absence of NRTIs or NNRTIs, or in the presence of increasing concentrations of the drug. The amount of luciferase activity produced in infected target host cells in the presence of varying concentrations of drug was compared to the amount of luciferase produced in infected target host cells in the absence of drug. “Drug resistance” was measured as the amount of drug required to inhibit by 50% the luciferase activity detected in the absence of drug (inhibitory concentration 50%, IC50). The IC50 values were determined by plotting percent drug inhibition vs. log10 drug concentration. Stimulation of viral replication was measured as the percent increase in luciferase activity detected when infection occurs in the presence of drug as compared to in the absence of drug.
(§2) Host cells were seeded in 10-cm-diameter dishes and were transfected several days after plating with resistance test vector plasmid DNA and the envelope expression vector. Transfections were performed using a calcium-phosphate precipitation procedure. The cell culture media containing the DNA precipitate was replaced with fresh medium, from one to 24 hours, after transfection. Cell culture media containing resistance test vector viral particles was harvested one to four days after transfection and was passed through a […] filter before being used to infect target host cells, or being stored at −80° C. HIV capsid protein (p24) levels in the harvested cell culture media were determined by an EIA method as described by the manufacturer (SAIC; Frederick, Md.). Before infection, target cells (293 and 293/T) were plated in cell culture media. Control infections were performed using cell culture media from mock transfections (no DNA) or transfections containing the resistance test vector plasmid DNA without the envelope expression plasmid. One to three or more days after infection, the media was removed and cell lysis buffer (Promega) was added to each well. Cell lysates were assayed for luciferase activity (FIG. 3). The inhibitory effect of the drug was determined using the following equation:
(§3) % luciferase inhibition=1−(RLUluc[drug]÷RLUluc)×100
(§4) where RLUluc [drug] is the Relative Light Unit of luciferase activity in infected cells in the presence of drug, and RLUluc is the Relative Light Unit of luciferase activity in infected cells in the absence of drug. IC50values were obtained from the sigmoidal curves that were generated from the data by plotting the percent inhibition of luciferase activity vs. the log10 drug concentration. The percent luciferase stimulation is the negative of the % inhibition calculated using the formula above.
(§5) A resistance test vector was constructed as described in Example 1 from a virus sample obtained from patient 012123. The prior and current treatment regimens are unknown. Isolation of viral RNA and RT/PCR was used to generate a patient derived segment (PDS) that comprised viral sequences coding for all of PR and aa 1-313 of RT. The PDS were inserted into an indicator gene viral vector to generate a resistance test vector designated RTV-012123. RTV-012123 was then tested in a phenotypic assay to determine accurately and quantitatively the level of susceptibility to a panel of anti-retroviral drugs. […]

RTV-1033-3/181C = experiment: Phenotypic susceptibility assay, RTV-1033-3/181C; type: cell-based, HIV; conditions: RTV-1033-3 plus Y181C
Excerpt: as §1
Host cells were seeded in 10-cm-diameter dishes and were transfected several days after plating with resistance test vector plasmid DNA and the envelope expression vector. Transfections were performed using a calcium-phosphate precipitation procedure. […] HIV capsid protein (p24) levels in the harvested cell culture media were determined by an EIA method as described by the manufacturer (SAIC; Frederick, Md.). […] The inhibitory effect of the drug was determined using the following equation: […]
where RLUluc [drug] is the Relative Light Unit of luciferase activity in infected cells in the presence of drug, and RLUluc is the Relative Light Unit of luciferase activity in infected cells in the absence of drug. […] The percent luciferase stimulation is the negative of the % inhibition calculated using the formula above.
A resistance test vector containing all of the mutations present in RTV-1033-3, in addition to Y181C (RTV-1033-3/181C) was constructed and tested using the phenotypic assay described earlier. The results were compared to those determined using the parent RTV-1033-3. We determined the pattern of phenotypic susceptibility to the NNRTIs, delavirdine, nevirapine and efavirenz, in the mutated vector, RTV-1033-3/181C.

RTV-K103N = experiment: Phenotypic susceptibility assay, RTV-K103N; type: cell-based, HIV-1; conditions: site-directed K103N alone
Excerpt: as §1, §2, §3, §4
A resistance test vector containing a single mutation, K103N, (RTV-K103N) was constructed and tested in the phenotypic assay described earlier. The results were compared to those determined using a genetically defined resistance test vector that was wild type at positions 103. We determined the pattern of phenotypic susceptibility to the NNRTIs, delavirdine, nevirapine and efavirenz, in RTV-K103N.

RTV-011073 = experiment: Phenotypic susceptibility assay, RTV-011073; type: cell-based, HIV; conditions: patient 011073; for decrease in susceptibility: V241S, K103N, I135T
Excerpt: as §1, §2, §3, §4
as §5, with “011073.” for “012123.”, “was” for “were”, “RTV-011073. RTV-011073” for “RTV-012123. RTV-012123”

[1] = system: RTV-1033, RTV-008973, RTV-757, RTV-008980 and RTV-1080; experiment: Phenotypic susceptibility assay, patient 1033 RTV pools; type: cell-based, HIV; conditions: range over five RTV pools of one patient
Excerpt: as §1, §2, §3, §4
Resistance test vectors were constructed as described in Example 1 from virus samples obtained from an individual patient at thirteen separate time points over a 2½-year period. This patient had been previously treated with two NRTIs (zidovudine and lamivudine) AZT, 3TC (NRTIS), and a PRI (indinavir) for a period of approximately 2 years at the time the first (97-309) and second (98-754) samples were obtained. The patient began taking a new anti-viral regimen including an NRTI (stavudine), an NNRTI (nevirapine), and two PRIs (nelfinavir and saquinavir) at the time the third sample (98-1032) was obtained. […]

RTV-007130 = experiment: Phenotypic susceptibility assay, RTV-007130; type: cell-based, HIV; conditions: patient 007130; for decrease in susceptibility: 245 with multiple other mutations
Excerpt: as §1, §2, §3, §4
as §5, with “007130.” for “012123.”, “RTV-007130. RTV-007130” for “RTV-012123. RTV-012123”

RTV-012090 = experiment: Phenotypic susceptibility assay, RTV-012090; type: cell-based, HIV; conditions: patient CCTG-1025, week 48; for decrease in susceptibility: K101E, K103N, G190S, M230L
Excerpt: as §1, §2, §3, §4
Resistance test vectors were constructed as described in Example 1 from virus samples obtained from an individual patient at two separate time points over a 48-week period. […]

SMILES | drug-dependent stimulation of viral replication (RTV-012123) | decrease in susceptibility (RTV-012123) | reduction in susceptibility compared to wild type control RTV (RTV-1033-3/181C) | drug-dependent stimulation of viral replication (RTV-K103N) | reductions in susceptibility compared to wild type control RTV (RTV-K103N) | drug-dependent stimulation of viral replication (RTV-011073) | decrease in susceptibility (RTV-011073) | drug-dependent stimulation of viral replication [1] | reductions in susceptibility [1] | drug-dependent stimulation of viral replication (RTV-007130) | decrease in susceptibility (RTV-007130) | drug-dependent stimulation of viral replication (RTV-012090) | decrease in susceptibility (RTV-012090) | drug-dependent stimulation of viral replication (RTV-1033-3/181C)
CC(C)Nc1cccnc1N1CCN(C(=O)c2cc3cc(NS(C)(=O)=O)ccc3[nH]2)CC1 [delavirdine] | ~80% | > 250 fold | > 250 fold | no drug-dependent stimulation | 87 fold | ~90% | > 250 fold | 20 to 180% | 3 to 18 fold | ~30% | > 250 fold | ~30% | 144 fold | 
O=C1Nc2ccc(Cl)cc2[C@@](C#CC2CC2)(C(F)(F)F)O1 [efavirenz] | ~70% | > 450 fold | > 450 fold | no drug-dependent stimulation | 29 fold | ~80% | > 450 fold | 30 to 170% | 16 to 300 fold | ~40% | > 450 fold | ~40% | > 450 fold | ~100%
Cc1ccnc2c1NC(=O)c1cccnc1N2C1CC1 [nevirapine] | ~20% | > 600 fold | > 600 fold | no drug-dependent stimulation | 67 fold | ~70% | > 600 fold | 40 to 250% | > 600 fold | ~50% | > 600 fold | ~80% | > 600 fold | 
